One molecule from patent US11865108B2, “Nitrogen containing bicyclic compounds” (Wockhardt Limited, priority 2019, dated 2024) can be followed below.

One data set deals with KP ATCC 700603. In words: Agar dilution MIC, KP ATCC 700603. It is filed as cell-based, K. pneumoniae. Particulars: Klebsiella pneumoniae, ATCC700603. The procedure:
(§1) The biological activity of representative compounds according to the invention against various bacterial strains was investigated. In a typical study, overnight grown bacterial cultures were diluted appropriately and inoculated on the agar media containing doubling dilutions of the test compounds. Observations for growth or no growth was performed after 16-20 hours of incubation at 35±2° C. in the ambient air. The overall procedure was performed as per Clinical and Laboratory Standards Institute (CLSI) recommendations, (Clinical and Laboratory Standards Institute (CLSI), Performance Standards for Antimicrobial Susceptibility Testing, 20th Informational Supplement, M07-A9, Volume 32, No. 2, 2012). Molten Mueller Hinton Agar (MHA) (BD, USA) containing serial dilutions of each antibacterial agent were poured on to the plates and allowed to solidify. Appropriate suspensions from the freshly grown cultures were prepared in normal saline so that about 10^4 CFU/spot of the organism was delivered on to the drug containing agar plates using automated multipoint inoculator (Mast, UK). The plates were incubated in Biochemical oxygen demand (BOD) incubator at 37° C. for 18 hours and then examined for growth. […] The Table 2 depicts the antibacterial activity profile of compounds according to present invention against various multidrug resistant bacterial strains.

The subject of a further data set is K. pneumoniae H 521. Briefly: Agar dilution MIC, K. pneumoniae H 521. It counts as cell-based. Particulars: Klebsiella pneumoniae, H521. The procedure: as §1
(In general: Agar dilution tests growth on a series of plates holding different concentrations.)

In data set [1] the test system is Multi Drug Resistant (MDR) Gram negative strains. In words: Antibacterial activity alone and in combination, summary of Table 3. It counts as cell-based, K. pneumoniae. Here is the method: as §1
(§2) The antibacterial activity of compounds according to the invention was also investigated in combination with several antibacterial agents. For example, antibacterial activity of the representative compounds of Formula (I) (Example 1 and Example 2) in combination with Ceftazidime and Cefixime are summarized in Table 3.

The test system of another data set is K. pneumoniae H 522. Briefly: Agar dilution MIC, K. pneumoniae H 522. It is filed as cell-based. Particulars: Klebsiella pneumoniae, H522. The procedure: as §1
The next data set relates to K. pneumoniae H 525. Briefly: Agar dilution MIC, K. pneumoniae H 525. It counts as cell-based. Particulars: Klebsiella pneumoniae, H525. The procedure: as §1
The next data set has as its system E. Coli 13353. In words: Agar dilution MIC, E. Coli 13353. It counts as cell-based. Particulars: Escherichia coli. The procedure: as §1
The subject of a further data set is E. Coli 13351. In words: Agar dilution MIC, E. Coli 13351. It counts as cell-based. Particulars: Escherichia coli. The procedure: as §1
The next data set concerns K. pneumoniae S 465. In words: MIC alone and in combination, K. pneumoniae S 465. It counts as cell-based. Particulars: Klebsiella pneumoniae, S465, 18 h, beta lactamase OXA-181, ESBL, alone or in combination as labelled. The procedure:
as §1, §2

The next data set deals with E. Coli M 138. Briefly: Agar dilution MIC, E. Coli M 138. It counts as cell-based. Particulars: Escherichia coli. Here is the method:
as §1

In another data set the test system is K. pneumoniae NCTC 13443. In words: MIC alone and in combination, K. pneumoniae NCTC 13443. Particulars: Klebsiella pneumoniae, NCTC13443, 18 h, beta lactamase NDM, ESBL, alone or in combination as labelled. It counts as cell-based. Here is the method:
as §1, §2

The test system of the next data set is K. pneumoniae NCTC 13439. In words: MIC alone and in combination, K. pneumoniae NCTC 13439. It counts as cell-based. Particulars: Klebsiella pneumoniae, NCTC13439, 18 h, beta lactamase VIM-1, alone or in combination as labelled. Here is the method:
as §1, §2

A further data set deals with K. pneumoniae B 88. In words: MIC alone and in combination, K. pneumoniae B 88. It is filed as cell-based. Particulars: Klebsiella pneumoniae, B88, 18 h, beta lactamase NDM, ESBL, alone or in combination as labelled. Here is the method: as §1, §2
For another data set, the system named is E. Coli 13352. In words: Agar dilution MIC, E. Coli 13352. It counts as cell-based. Particulars: Escherichia coli. The procedure:
as §1

Another data set has as its system E. Coli M 50. Briefly: Agar dilution MIC, E. Coli M 50. It is filed as cell-based. Particulars: Escherichia coli. Here is the method:
as §1

Another data set concerns K. pneumoniae B 77. In words: MIC alone and in combination, K. pneumoniae B 77. It is filed as cell-based. Particulars: Klebsiella pneumoniae, B77, 18 h, beta lactamase NDM, ESBL, alone or in combination as labelled. The procedure:
as §1, §2

The test system of the next data set is E. Coli S 18. Briefly: Agar dilution MIC, E. Coli S 18. Particulars: Escherichia coli. It is filed as cell-based. Here is the method:
as §1

The test system of a further data set is K. pneumoniae H 523. Briefly: Agar dilution MIC, K. pneumoniae H 523. It counts as cell-based. Particulars: Klebsiella pneumoniae, H523. The procedure: as §1
The subject of another data set is E. Coli 7 MP. Briefly: Agar dilution MIC, E. Coli 7 MP. Particulars: Escherichia coli. It counts as cell-based. The procedure:
as §1

The subject of another data set is E. Coli M 36. In words: Agar dilution MIC, E. Coli M 36. It counts as cell-based. Particulars: Escherichia coli. The procedure:
as §1

The test system of another data set is E. Coli M 49. Briefly: Agar dilution MIC, E. Coli M 49. It counts as cell-based. Particulars: Escherichia coli. The procedure:
as §1

SMILES strings stand for the structures. ≈ marks a conversion by molar mass, not a printed value. Some results are limits rather than exact numbers.

For orientation: melting point means the temperature of the solid-liquid transition. A word on the MIC: it is the lowest concentration found to suppress growth. As for `C[C@H]1CN[C@H](CONC(=O)[C@@H]2CC[C@@H]3CN2C(=O)N3OS(=O)(=O)O)C1` [Example 1, (2S,5R)—N-{[(2S,4R)-4-methylpyrrolidin-2-yl]methyloxy}-7-oxo-6-(sulfooxy)-1,6-diazabicyclo[3.2.1]octane-2-carboxamide], the melting point was 172 to 174 °C (dec.). Besides, the MIC against KP ATCC 700603 was greater than 32 µg/mL. Further, the MIC against K. pneumoniae H 521 is 1 µg/mL (≈ 2.64 µM). Moreover, the “antibacterial effect in combination” value in [1] (in combination with Ceftazidime and Cefixime, highly resistant bacterial strains) was “unusual and unexpected synergistic antibacterial effect”. Besides, the “antibacterial activity when used alone” value in data set [1] (used alone, strains of Table 3) is given as “did not exhibit significant antibacterial activity”. The molecule further displayed an MIC against K. pneumoniae H 522 of 1 µg/mL (≈ 2.64 µM). Inhibition of growth in the data set with K. pneumoniae H 525 (MIC) required 0.5 µg/mL (≈ 1.32 µM). The molecule further gave an MIC in the data set with E. Coli 13353 of 0.5 µg/mL (≈ 1.32 µM). Besides, in the data set on E. Coli 13351, the MIC came to 1 µg/mL (≈ 2.64 µM). Further, the MIC in the data set on K. pneumoniae S 465 was greater than 32 µg/mL. This molecule also came in with an MIC in the data set with E. Coli M 138 of 0.5 µg/mL (≈ 1.32 µM). In the data set with K. pneumoniae NCTC 13443, the MIC was greater than 32 µg/mL. The MIC in the data set on K. pneumoniae NCTC 13439 is greater than 32 µg/mL. Also, the MIC with K. pneumoniae B 88 is greater than 32 µg/mL. Besides, in the data set with E. Coli 13352, the minimal inhibitory concentration (MIC) is 1 µg/mL (≈ 2.64 µM). Further, the MIC with E. Coli M 50 stood at 0.5 µg/mL (≈ 1.32 µM). Moreover, the MIC in the data set with K. pneumoniae B 77 was greater than 32 µg/mL. It took 1 µg/mL (≈ 2.64 µM) to inhibit growth against E. Coli S 18 (MIC). In addition, the MIC against K. pneumoniae H 523 worked out at 0.5 µg/mL (≈ 1.32 µM). The same molecule returned an MIC with E. Coli 7 MP of 1 µg/mL (≈ 2.64 µM). In addition, 0.5 µg/mL (≈ 1.32 µM) was the least that counted as inhibitory against E. Coli M 36 (MIC). For the same molecule, in the data set on E. Coli M 49, inhibition of growth (MIC) required 4 µg/mL (≈ 10.6 µM).
